The values that follow come from US20230357314A1, “METHODS FOR ULTRAFAST FORMATION OF DISULFIDE BONDS IN PEPTIDES AND PROTEINS” (TECHNION RESEARCH & DEVELOPMENT FOUNDATION LIMITED, priority 2020, published 2023).

Assay [1] has as its system methicillin resistant Staphylococcus aureus (MRSA). The note with it: for MIC: MRSA growth after 17 h at 37° C., LB medium, absorbance at 600 nm, triplicate.
Assay [2] has the same test system. The experiment in a line: microbe, parasite or virus in culture. As to conditions: 17 h.

Structures are written as SMILES. In brackets after ≈: the same amount, converted by molar mass. Where two headings read alike, the source gives them in different places. Positions of bridges follow the written chain, without caps; N, C: chain ends. Residues, ends and D or L forms follow the SMILES beside them.

Regarding `CC[C@H](C)[C@@H]1NC(=O)[C@H](CO)NC(=O)[C@H](CCCCN)NC(=O)[C@@H]2CSSC[C@@H](C(=O)N[C@@H](Cc3ccc(O)cc3)C(N)=O)NC(=O)[C@H](CCCCN)NC(=O)[C@@H]3CSSC[C@H](NC(=O)[C@H](CCC(N)=O)NC(=O)[C@H](C)NC(=O)[C@H](CC(=O)O)NC(=O)[C@H](CC(=O)O)NC(=O)[C@H](CCC(=O)O)NC(=O)[C@H](CC(=O)O)NC(=O)[C@H](Cc4c[nH]c5ccccc45)NC(=O)[C@@H]4CCCN4C(=O)CNC(=O)[C@H](CC(N)=O)NC(=O)[C@@H](NC(=O)CNC(=O)[C@H](Cc4ccccc4)NC(=O)CN)CSSC[C@H](NC(=O)[C@H](Cc4ccc(O)cc4)NC(=O)CNC(=O)CNC(=O)[C@H](CCCCN)NC(=O)[C@H](Cc4ccc(O)cc4)NC(=O)CNC(=O)[C@H](CCCCN)NC1=O)C(=O)N[C@@H](C)C(=O)N[C@@H](CCCCN)C(=O)NCC(=O)NCC(=O)N[C@@H](Cc1ccccc1)C(=O)N[C@@H](C(C)C)C(=O)N3)C(=O)N[C@@H](Cc1c[nH]cn1)C(=O)N[C@@H](CC(N)=O)C(=O)N[C@@H](Cc1c[nH]cn1)C(=O)N2` [plectasinMet13Ala] (H-GFGCNGPWDEDDAQCHNHCKSIKGYKGGYCAKGGFVCKCY-NH2; disulfide 4-30, 15-37, 19-39; N-terminus assumed), in assay [1] (MRSA MIC analysis, worded as 'even in comparison to' trimethoprim (TMP)), the “improvement of the antimicrobial activity” value is listed as “four-fold”. In assay [1] (MRSA MIC, relative to wild type plectasin), the “enhanced activity relative to the wild type plectasin” value is “four-fold”. The MIC in assay [1] stood at 1.25 µM (≈ 5.43 µg/mL). `CC[C@H](C)[C@@H]1NC(=O)[C@H](CO)NC(=O)[C@H](CCCCN)NC(=O)[C@@H]2CSSC[C@@H](C(=O)N[C@@H](Cc3ccc(O)cc3)C(N)=O)NC(=O)[C@H](CCCCN)NC(=O)[C@@H]3CSSC[C@H](NC(=O)[C@H](CCC(N)=O)NC(=O)[C@H](CCSC)NC(=O)[C@H](CC(=O)O)NC(=O)[C@H](CC(=O)O)NC(=O)[C@H](CCC(=O)O)NC(=O)[C@H](CC(=O)O)NC(=O)[C@H](Cc4c[nH]c5ccccc45)NC(=O)[C@@H]4CCCN4C(=O)CNC(=O)[C@H](CC(N)=O)NC(=O)[C@@H](NC(=O)CNC(=O)[C@H](Cc4ccccc4)NC(=O)CN)CSSC[C@H](NC(=O)[C@H](Cc4ccc(O)cc4)NC(=O)CNC(=O)CNC(=O)[C@H](CCCCN)NC(=O)[C@H](Cc4ccc(O)cc4)NC(=O)CNC(=O)[C@H](CCCCN)NC1=O)C(=O)N[C@@H](C)C(=O)N[C@@H](CCCCN)C(=O)NCC(=O)NCC(=O)N[C@@H](Cc1ccccc1)C(=O)N[C@@H](C(C)C)C(=O)N3)C(=O)N[C@@H](Cc1c[nH]cn1)C(=O)N[C@@H](CC(N)=O)C(=O)N[C@@H](Cc1c[nH]cn1)C(=O)N2` [plectasin WT, plectasin, reference compound] displayed an MIC in assay [1] of 5 µM (≈ 22 µg/mL). For `COc1cc(Cc2cnc(N)nc2N)cc(OC)c1OC` [TMP, trimethoprim], the MIC in assay [2] came to 2 µM (≈ 0.581 µg/mL).
